Reference: patent publication US20240382483A1, “HETEROCYCLIC EGFR INHIBITORS FOR USE IN THE TREATMENT OF CANCER” (Blueprint Medicines Corporation, priority 2021, published 2024)
Like-named read-outs stand apart in the source and are kept apart here.

Tests used:
EGFR (L858R T790M C797S) = target: T1, EGFR (L858R T790M C797S) (Homo sapiens, UniProt P00533, C797S/L858R/T790M); assay: Biochemical EGFR inhibition assay (Caliper mobility shift), EGFR LRTMCS; settings: LRTMCS (PH) IC50 (nM) @ 1 mM ATP (Num), EGFR LRTMCS mutant
T1 construct: purchased SignalChem E10-122VG
Protocol: Reactions proceeded until between 10% to 20% total peptides were phosphorylated at room temperature (25° C.) and were terminated with 35 mM 2,2′,2″,2′″-(ethane-1,2-diyldinitrilo)tetraacetic acid (EDTA). Product was detected using the Caliper mobility shift detection method where the phosphorylated peptide (product) and substrate were electrophoretically separated and measured. Percent activity was plotted against log concentration of compound and points to generate an apparent IC50.

[1] = target: T2, intracellular phosphorylation of EGFR in NCI-H1975 cell line that harbors the EGFR L858R T790M mutations (Homo sapiens, UniProt P00533, L858R/T790M); assay: NCI-H1975 pEGFR AlphaLISA assay; type: cell-based; settings: NCI-H1975 cells (EGFR L858R T790M), p-EGFR (Tyr1068), 4-5 hours incubation
T2 construct: NCI-H1975 cell line that harbors the EGFR L858R T790M mutations (ATCC, CRL-5908); host or cells: NCI-H1975
Protocol: On the next day, the test compounds and DMSO control were added into H1975 cell plate followed by incubation at 37C/5% CO2 for 4-5 hours. […] Then 5 μL of a donor bead mix was added to each well followed by overnight incubation at room temperature in dark. On the next day, the plate was read at a compatible plate reader to obtain pEGFR signal. Percent of pEGFR inhibition was plotted against log concentration of compounds to generate IC50 values.

[2] = read-out: Ext pEGFR H1975 GMean IC50 (nM) Protocol: @Pharmaron AlphaLISA (Num)

T2 sequence (P00533 25-1210 T790M/L858R): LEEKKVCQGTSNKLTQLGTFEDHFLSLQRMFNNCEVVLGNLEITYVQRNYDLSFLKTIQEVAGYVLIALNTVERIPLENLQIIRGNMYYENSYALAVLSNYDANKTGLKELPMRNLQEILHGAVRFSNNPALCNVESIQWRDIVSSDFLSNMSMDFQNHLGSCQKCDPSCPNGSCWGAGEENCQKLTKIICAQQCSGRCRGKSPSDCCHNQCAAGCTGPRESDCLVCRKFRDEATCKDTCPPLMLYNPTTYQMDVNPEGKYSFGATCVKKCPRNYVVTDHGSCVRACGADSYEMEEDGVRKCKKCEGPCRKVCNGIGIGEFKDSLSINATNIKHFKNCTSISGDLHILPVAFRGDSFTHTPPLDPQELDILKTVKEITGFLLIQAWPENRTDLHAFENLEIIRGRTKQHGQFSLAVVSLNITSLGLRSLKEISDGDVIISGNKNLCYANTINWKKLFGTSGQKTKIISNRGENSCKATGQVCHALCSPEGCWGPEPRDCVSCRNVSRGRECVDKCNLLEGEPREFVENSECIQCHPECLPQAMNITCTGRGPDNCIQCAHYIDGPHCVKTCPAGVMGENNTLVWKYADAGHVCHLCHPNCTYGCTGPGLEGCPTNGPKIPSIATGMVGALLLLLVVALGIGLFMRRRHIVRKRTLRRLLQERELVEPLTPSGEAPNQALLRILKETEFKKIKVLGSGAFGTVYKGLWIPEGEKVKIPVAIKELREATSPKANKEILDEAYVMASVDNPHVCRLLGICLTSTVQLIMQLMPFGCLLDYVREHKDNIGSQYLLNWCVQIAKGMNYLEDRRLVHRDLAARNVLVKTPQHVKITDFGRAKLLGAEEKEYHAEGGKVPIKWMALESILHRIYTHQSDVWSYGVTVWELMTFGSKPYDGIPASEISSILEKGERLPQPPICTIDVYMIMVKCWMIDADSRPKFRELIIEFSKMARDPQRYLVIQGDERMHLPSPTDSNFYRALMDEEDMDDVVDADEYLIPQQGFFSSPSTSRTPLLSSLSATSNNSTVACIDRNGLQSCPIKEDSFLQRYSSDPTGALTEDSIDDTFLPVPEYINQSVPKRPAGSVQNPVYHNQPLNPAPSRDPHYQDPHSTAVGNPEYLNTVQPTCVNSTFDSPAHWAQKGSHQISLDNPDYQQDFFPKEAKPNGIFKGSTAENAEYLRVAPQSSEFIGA
T1 sequence (P00533 25-1210 T790M/C797S/L858R): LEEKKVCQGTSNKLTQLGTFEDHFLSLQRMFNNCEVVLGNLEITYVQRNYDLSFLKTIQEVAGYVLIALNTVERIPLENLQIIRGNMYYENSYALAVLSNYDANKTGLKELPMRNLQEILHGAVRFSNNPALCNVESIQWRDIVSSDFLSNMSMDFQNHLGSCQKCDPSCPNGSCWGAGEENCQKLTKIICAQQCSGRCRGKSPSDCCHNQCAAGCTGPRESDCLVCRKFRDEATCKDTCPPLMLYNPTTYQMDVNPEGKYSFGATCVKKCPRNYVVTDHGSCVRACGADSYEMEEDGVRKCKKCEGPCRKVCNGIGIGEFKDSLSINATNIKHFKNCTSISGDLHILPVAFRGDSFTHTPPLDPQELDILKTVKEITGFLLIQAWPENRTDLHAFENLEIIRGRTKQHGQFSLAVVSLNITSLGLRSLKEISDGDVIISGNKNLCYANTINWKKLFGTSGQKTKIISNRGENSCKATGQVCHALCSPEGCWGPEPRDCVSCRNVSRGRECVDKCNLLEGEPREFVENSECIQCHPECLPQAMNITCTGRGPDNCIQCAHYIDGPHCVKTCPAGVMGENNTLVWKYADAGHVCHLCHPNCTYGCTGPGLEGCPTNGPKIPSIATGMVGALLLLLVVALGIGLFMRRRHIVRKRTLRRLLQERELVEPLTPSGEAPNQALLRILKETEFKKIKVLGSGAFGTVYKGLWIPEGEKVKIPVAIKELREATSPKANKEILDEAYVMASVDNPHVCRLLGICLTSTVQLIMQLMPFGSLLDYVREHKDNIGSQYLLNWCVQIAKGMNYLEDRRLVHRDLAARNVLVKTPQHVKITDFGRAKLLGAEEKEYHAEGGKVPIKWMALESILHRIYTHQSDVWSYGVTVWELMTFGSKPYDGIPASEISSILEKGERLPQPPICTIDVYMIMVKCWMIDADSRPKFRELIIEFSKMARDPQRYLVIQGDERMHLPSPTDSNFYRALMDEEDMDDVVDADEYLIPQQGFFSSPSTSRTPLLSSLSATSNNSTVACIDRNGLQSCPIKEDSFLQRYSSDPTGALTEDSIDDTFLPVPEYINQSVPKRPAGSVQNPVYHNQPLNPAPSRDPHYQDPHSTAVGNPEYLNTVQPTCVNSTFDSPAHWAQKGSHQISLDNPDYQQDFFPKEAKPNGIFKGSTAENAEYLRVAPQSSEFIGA

| IC50 (EGFR (L858R T790M C797S)) | IC50 [1, 2] | SMILES | IC50 ([1]; Ext pEGFR H1975 GMean IC50 (nM) Protocol: @Pharmaron AlphaLISA (Num)) |
| --- | --- | --- | --- |
| 30 to 100 nM | > 50 nM | CC(C)c1ccc(N2CCC2)c2cnc(Nc3ccnc(N4CC[C@@H](O)[C@@](C)(F)C4)n3)cc12 [Example 110, (3S,4R)-1-(4-((8-(azetidin-1-yl)-5-isopropylisoquinolin-3-yl)amino)pyrimidin-2-yl)-3-fluoro-3-methylpiperidin-4-ol] |  |
| 20 to 30 nM | > 50 nM | C[C@H]1CCN1c1ncc(CC2(C)COC2)c2cc(Nc3ccnc(N4CC[C@@H](O)[C@@](C)(F)C4)n3)ncc12 (single isomer, unassigned) [Example 156, (3S,4R)-3-fluoro-3-methyl-1-(4-((8-((S)-2-methylazetidin-1-yl)-5-((3-methyloxetan-3-yl)methyl)-2,7-naphthyridin-3-yl)amino)pyrimidin-2-yl)piperidin-4-ol or (3S,4R)-3-fluoro-3-methyl-1-(4-((8-((R)-2-methylazetidin-1-yl)-5-((3-methyloxetan-3-yl)methyl)-2,7-naphthyridin-3-yl)amino)pyrimidin-2-yl)piperidin-4-ol] |  |
| < 15 nM | 30 to 50 nM | CC(C)c1cnc(N2CC(n3cncn3)C2)c2cnc(Nc3ccnc(N4CC[C@@H](O)[C@@](C)(F)C4)n3)cc12 [Example 88, (3S,4R)-1-(4-((8-(3-(1H-1,2,4-triazol-1-yl)azetidin-1-yl)-5-isopropyl-2,7-naphthyridin-3-yl)amino)pyrimidin-2-yl)-3-fluoro-3-methylpiperidin-4-ol] |  |
| < 15 nM | < 10 nM | [2H]C([2H])([2H])O[C@H]1CCN(c2nccc(Nc3cc4c(C(C)C)cnc(N5C[C@H](OCCO)[C@H]5C)c4cn3)n2)C[C@H]1F [Example 137, 2-(((2R,3S)-1-(6-((2-((3R,4S)-3-fluoro-4-(methoxy-d3)piperidin-1-yl)pyrimidin-4-yl)amino)-4-isopropyl-2,7-naphthyridin-1-yl)-2-methylazetidin-3-yl)oxy)ethan-1-ol] |  |
| < 15 nM | < 10 nM | CC(C)c1cnc(N2C[C@@H](F)[C@H]2C)c2cnc(Nc3ccnc(N4CC[C@@H](O)[C@@](C)(F)C4)n3)cc12 (single isomer, unassigned) [Example 33, (3S,4R)-3-fluoro-1-(4-((8-((2R,3R)-3-fluoro-2-methylazetidin-1-yl)-5-isopropyl-2,7-naphthyridin-3-yl)amino)pyrimidin-2-yl)-3-methylpiperidin-4-ol or (3S,4R)-3-fluoro-1-(4-((8-((2S,3S)-3-fluoro-2-methylazetidin-1-yl)-5-isopropyl-2,7-naphthyridin-3-yl)amino)pyrimidin-2-yl)-3-methylpiperidin-4-ol] |  |
| < 15 nM | 10 to 20 nM | CC(C)c1cnc(N2C[C@H](O)[C@H]2C)c2cnc(Nc3ccnc(N4CC[C@@H](O)[C@@H](F)C4)n3)cc12 [Example 154, (3S,4R)-3-fluoro-1-(4-((8-((2R,3S)-3-hydroxy-2-methylazetidin-1-yl)-5-isopropyl-2,7-naphthyridin-3-yl)amino)pyrimidin-2-yl)piperidin-4-ol] |  |
| < 15 nM | < 10 nM | CC(C)c1cnc(N2C[C@@H](C(=O)N(C)C)[C@@H]2C)c2cnc(Nc3ccnc(N4CC[C@@H](O)[C@@](C)(F)C4)n3)cc12 (single isomer, unassigned) [Example 155, (2S,3R)-1-(6-((2-((3S,4R)-3-fluoro-4-hydroxy-3-methylpiperidin-1-yl)pyrimidin-4-yl)amino)-4-isopropyl-2,7-naphthyridin-1-yl)-N,N,2-trimethylazetidine-3-carboxamide or (2R,3S)-1-(6-((2-((3S,4R)-3-fluoro-4-hydroxy-3-methylpiperidin-1-yl)pyrimidin-4-yl)amino)-4-isopropyl-2,7-naphthyridin-1-yl)-N,N,2-trimethylazetidine-3-carboxamide] |  |
| < 15 nM | 10 to 20 nM | CC(C)c1cnc(N2CC[C@H]2C(F)F)c2cnc(Nc3ccnc(N4CC[C@@H](O)[C@@](C)(F)C4)n3)cc12 (single isomer, unassigned) [Example 204, (3S,4R)-1-(4-((8-((S)-2-(difluoromethyl)azetidin-1-yl)-5-isopropyl-2,7-naphthyridin-3-yl)amino)pyrimidin-2-yl)-3-fluoro-3-methylpiperidin-4-ol or (3S,4R)-1-(4-((8-((R)-2-(difluoromethyl)azetidin-1-yl)-5-isopropyl-2,7-naphthyridin-3-yl)amino)pyrimidin-2-yl)-3-fluoro-3-methylpiperidin-4-ol] |  |
| 30 to 100 nM | > 50 nM | CC(C)c1cnc(N2C[C@H](O)[C@H]2C)c2cnc(Nc3ccnc(N4C[C@H](F)[C@H](O)[C@](C)(F)C4)n3)cc12 (single isomer, unassigned) [Example 134, (3R,4S,5S)-3,5-difluoro-1-(4-((8-((2R,3S)-3-hydroxy-2-methylazetidin-1-yl)-5-isopropyl-2,7-naphthyridin-3-yl)amino)pyrimidin-2-yl)-3-methylpiperidin-4-ol or (3S,4R,5R)-3,5-difluoro-1-(4-((8-((2R,3S)-3-hydroxy-2-methylazetidin-1-yl)-5-isopropyl-2,7-naphthyridin-3-yl)amino)pyrimidin-2-yl)-3-methylpiperidin-4-ol] |  |
| < 15 nM | 10 to 20 nM | CC(C)c1ccc(N2C[C@H](O)[C@H]2C)c2cnc(Nc3ccnc(N4CC[C@@H](O)[C@@](C)(F)C4)n3)cc12 [Example 103, (3S,4R)-3-fluoro-1-(4-((8-((2R,3S)-3-hydroxy-2-methylazetidin-1-yl)-5-isopropylisoquinolin-3-yl)amino)pyrimidin-2-yl)-3-methylpiperidin-4-ol] |  |
| < 15 nM | < 10 nM | CC(C)c1cnc(N2CC(n3ccnn3)C2)c2cnc(Nc3ccnc(N4CC[C@@H](O)[C@@](C)(F)C4)n3)cc12 [Example 89, (3S,4R)-1-(4-((8-(3-(1H-1,2,3-triazol-1-yl)azetidin-1-yl)-5-isopropyl-2,7-naphthyridin-3-yl)amino)pyrimidin-2-yl)-3-fluoro-3-methylpiperidin-4-ol] |  |
| < 15 nM | 10 to 20 nM | CO[C@H]1CCN(c2nccc(Nc3cc4c(C(C)C)cnc(N5C[C@H](O)[C@H]5C)c4cn3)n2)C[C@H]1F [Example 149, (2R,3S)-1-(6-((2-((3R,4S)-3-fluoro-4-methoxypiperidin-1-yl)pyrimidin-4-yl)amino)-4-isopropyl-2,7-naphthyridin-1-yl)-2-methylazetidin-3-ol] |  |
| < 15 nM | < 10 nM | CC(C)c1ccc(N2CC(c3nnco3)C2)c2cnc(Nc3ccnc(N4CC[C@@H](O)[C@@](C)(F)C4)n3)cc12 [Example 111, (3S,4R)-1-(4-((8-(3-(1,3,4-oxadiazol-2-yl)azetidin-1-yl)-5-isopropylisoquinolin-3-yl)amino)pyrimidin-2-yl)-3-fluoro-3-methylpiperidin-4-ol] |  |
| 15 to 20 nM | > 50 nM | Cc1nnc(-c2cnc(C(C)C)c3cc(Nc4ccnc(N5CC[C@@H](O)[C@@](C)(F)C5)n4)ncc23)o1 [Example 7, (3S,4R)-3-fluoro-1-(4-((5-isopropyl-8-(5-methyl-1,3,4-oxadiazol-2-yl)-2,6-naphthyridin-3-yl)amino)pyrimidin-2-yl)-3-methylpiperidin-4-ol] |  |
| 20 to 30 nM | > 50 nM | CC(C)c1cnc(N2CC3(CCS3(=O)=O)C2)c2cnc(Nc3ccnc(N4CC[C@@](C)(O)[C@@H](F)C4)n3)cc12 (single isomer, unassigned) [Example 174, 6-(6-((2-((3S,4R)-3-fluoro-4-hydroxy-4-methylpiperidin-1-yl)pyrimidin-4-yl)amino)-4-isopropyl-2,7-naphthyridin-1-yl)-1-thia-6-azaspiro[3.3]heptane 1,1-dioxide or 6-(6-((2-((3R,4S)-3-fluoro-4-hydroxy-4-methylpiperidin-1-yl)pyrimidin-4-yl)amino)-4-isopropyl-2,7-naphthyridin-1-yl)-1-thia-6-azaspiro[3.3]heptane 1,1-dioxide] |  |
| < 15 nM | 10 to 20 nM | C[C@@H](CO)c1cnc(N2CC[C@@H]2C)c2cnc(Nc3ccnc(N4CC[C@@H](O)[C@@](C)(F)C4)n3)cc12 (single isomer, unassigned) [Example 189] |  |
| < 15 nM | 30 to 50 nM | CNC[C@@H]1CCN1c1ncc(C(C)C)c2cc(Nc3ccnc(N4CC[C@H](OC)[C@H](F)C4)n3)ncc12 [Example 164, N-(2-((3R,4S)-3-fluoro-4-methoxypiperidin-1-yl)pyrimidin-4-yl)-5-isopropyl-8-((S)-2-((methylamino)methyl)azetidin-1-yl)-2,7-naphthyridin-3-amine] |  |

| SMILES | IC50 (EGFR (L858R T790M C797S)) | IC50 [1, 2] | IC50 ([1]; Ext pEGFR H1975 GMean IC50 (nM) Protocol: @Pharmaron AlphaLISA (Num)) |
| --- | --- | --- | --- |
| COP(=O)(CC1CN(c2ncc(C(C)C)c3cc(Nc4ccnc(N5CC[C@@H](O)[C@@](C)(F)C5)n4)ncc23)C1)OC [Example 96, dimethyl ((1-(6-((2-((3S,4R)-3-fluoro-4-hydroxy-3-methylpiperidin-1-yl)pyrimidin-4-yl)amino)-4-isopropyl-2,7-naphthyridin-1-yl)azetidin-3-yl)methyl)phosphonate] | 20 to 30 nM |  | 20 to 30 nM |
